Assay results: publication PMC8214093, “Structural basis of KdpD histidine kinase binding to the second messenger c-di-AMP” (The Journal of Biological Chemistry, 2021)
Where “and” joins values, the source holds several entries; their conditions need not be identical. Equal entries are not always repeated. Where two headings read alike, the source gives them in different places.

Key:
USPSa-WT [1] = target: T1, USPSa-WT (Staphylococcus aureus, UniProt A0A7U7EVR3); assay: MicroScale Thermophoresis (thermophoretic mobility change) nucleotide binding; conditions: MST, change in thermophoretic mobility, read-out: Dissociation Constant (KD) ± Standard Deviation
Procedure: (§1) The ligand-binding specificity of USPSa, the role of USPSa residues in c-di-AMP binding, and the c-di-AMP binding affinity of USP homologs were biochemically determined by MST, using purified WT and mutant proteins. […] For these MST experiments, WT and active-site mutants of His6-USPSa were first fluorescently labeled using a RED-Tris NTA Monolith His-Tag labeling kit (Nanotemper, Technologies, Inc). For labeling, the proteins were diluted to a concentration of 800 nM in binding buffer (50 mM potassium phosphate, pH 8.0, 800 mM NaCl, and 0.05% Tween 20), mixed with an equal volume of RED-Tris-NTA dye (80 nM), and incubated on ice in the dark for 30 min. The stock solutions of ligands (c-di-AMP, c-di-GMP, ATP, AMP, c-AMP) were serially diluted with the binding buffer in a 1:1 ratio during each dilution step. The labeled proteins and the ligand dilutions were then mixed in a 1:1 ratio and incubated on ice in the dark for 30 min.
(§2) The samples were then loaded into Monolith standard-treated capillaries in triplicate, and the changes in fluorescence were measured with 40% LED power and 20% IR-laser power for an on-time of 20-s at 23 °C. To determine the binding affinity, the ligand-dependent changes in the intensity of the initial fluorescence, or the thermophoretic mobility, were analyzed according to the law of mass action in a standard fitting mode of MO.Affinity analysis software (version 2.3). To exclude the possibility of nonspecific binding of the ligand to the His6-tag (on USPSa) or ligand-induced USP adsorption to labware or due to aggregation, we performed His6-peptide and EDTA tests, respectively ([91]). In the His6-peptide test, a control His6-peptide was used instead of USP in the binding assay described above, and if no change in initial fluorescence occurred, this confirmed the USP-specific binding of ligands. In the EDTA test, the binding buffer additionally contained 50 mM EDTA to disrupt the interaction between His6-USP and the RED-Tris-NTA dye. The complete loss of the ligand-induced initial fluorescence change in this assay confirmed that this change was neither because of protein aggregation nor because of protein adsorption to labware.
(§3) The Ka values of WT USPSa for c-di-AMP or AMP were set to 100% relative affinity, and the binding affinities of the other nucleotides (Fig. 1C), or USPSa mutants (Fig. 4E), or USP homologs (Fig. 6, B and C) were depicted as percent values compared with the values of the WT USPSa.

USPSa-K277A = target: T2, USPSa-K277A (Staphylococcus aureus, UniProt A0A7U7EVR3, K277A); assay: as above; conditions: K277A mutant; for Kd: MST, change in thermophoretic mobility, read-out: Dissociation Constant (KD) ± Standard Deviation
T2 sequence (A0A7U7EVR3 213-364 K277A): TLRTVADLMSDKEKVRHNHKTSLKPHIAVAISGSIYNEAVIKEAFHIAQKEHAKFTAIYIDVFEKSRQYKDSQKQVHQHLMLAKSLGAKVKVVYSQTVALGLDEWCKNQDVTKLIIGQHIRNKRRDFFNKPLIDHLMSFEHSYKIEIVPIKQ
Procedure: as §1, §2, §3

USPSa-R279A = USPSa-R279A (Staphylococcus aureus, UniProt A0A7U7EVR3, R279A); assay: as above; conditions: R279A mutant; MST, change in thermophoretic mobility; read-out: Dissociation Constant (KD) ± Standard Deviation
Procedure: as §1, §2, §3

USPSa-S246A = target: T3, USPSa-S246A (Staphylococcus aureus, UniProt A0A7U7EVR3, S246A); assay: MicroScale Thermophoresis (initial fluorescence change) nucleotide binding; conditions: S246A mutant; for Kd: MST, initial fluorescence, read-out: Dissociation Constant (KD) ± Standard Deviation
T3 sequence (A0A7U7EVR3 213-364 S246A): T2 sequence (A0A7U7EVR3 213-364 K277A)
Procedure: as §1, §2, §3

USPSa-Y248A = target: T4, USPSa-Y248A (Staphylococcus aureus, UniProt A0A7U7EVR3, Y248A); assay: as above; conditions: Y248A mutant; for Kd: MST, initial fluorescence, read-out: Dissociation Constant (KD) ± Standard Deviation
T4 sequence (A0A7U7EVR3 213-364 Y248A): T2 sequence (A0A7U7EVR3 213-364 K277A)
Procedure: as §1, §2, §3

USPSa-Y281F = target: T5, USPSa-Y281F (Staphylococcus aureus, UniProt A0A7U7EVR3, Y281F); assay: as above; conditions: Y281F mutant; for Kd: MST, initial fluorescence, read-out: Dissociation Constant (KD) ± Standard Deviation
T5 sequence (A0A7U7EVR3 213-364 Y281F): T2 sequence (A0A7U7EVR3 213-364 K277A)
Procedure: as §1, §2, §3

USPSa-N249A = target: T6, USPSa-N249A (Staphylococcus aureus, UniProt A0A7U7EVR3, N249A); assay: as above; conditions: N249A mutant; for Kd: MST, initial fluorescence, read-out: Dissociation Constant (KD) ± Standard Deviation
T6 sequence (A0A7U7EVR3 213-364 N249A): T2 sequence (A0A7U7EVR3 213-364 K277A)
Procedure: as §1, §2, §3

USPSa-K282A = USPSa-K282A (Staphylococcus aureus, UniProt A0A7U7EVR3, K282A); assay: as above; conditions: K282A mutant, MST, read-out: Dissociation Constant (KD) ± Standard Deviation
Procedure: as §1, §2, §3

USPSa-A242G = target: T7, USPSa-A242G (Staphylococcus aureus, UniProt A0A7U7EVR3, A242G); assay: as above; conditions: for Kd: MST, initial fluorescence, read-out: Dissociation Constant (KD) ± Standard Deviation
T7 sequence (A0A7U7EVR3 213-364 A242G): T2 sequence (A0A7U7EVR3 213-364 K277A)
Procedure: as §1, §2, §3

USPSa-Q280A = USPSa-Q280A (Staphylococcus aureus, UniProt A0A7U7EVR3, Q280A); assay: as above; conditions: Q280A mutant, MST, read-out: Dissociation Constant (KD) ± Standard Deviation
Procedure: as §1, §2, §3

USPSa-H331A = target: T8, USPSa-H331A (Staphylococcus aureus, UniProt A0A7U7EVR3, H331A); assay: as above; conditions: for Kd: H331A mutant, MST, initial fluorescence, read-out: Dissociation Constant (KD) ± Standard Deviation
T8 sequence (A0A7U7EVR3 213-364 H331A): T2 sequence (A0A7U7EVR3 213-364 K277A)
Procedure: as §1, §2, §3

USPSa-S244D = target: T9, USPSa-S244D (Staphylococcus aureus, UniProt A0A7U7EVR3, S244D); assay: as above; conditions: S244D mutant
T9 sequence (A0A7U7EVR3 213-364 S244D): T2 sequence (A0A7U7EVR3 213-364 K277A)
Procedure: as §1, §2, §3

USPSa-L344A = target: T10, USPSa-L344A (Staphylococcus aureus, UniProt A0A7U7EVR3, L344A); assay: as above; conditions: L344A mutant; for Kd: MST, initial fluorescence, read-out: Dissociation Constant (KD) ± Standard Deviation
T10 sequence (A0A7U7EVR3 213-364 L344A): T2 sequence (A0A7U7EVR3 213-364 K277A)
Procedure: as §1, §2, §3

USPSa-WT [2] = target: T1, USPSa-WT; assay: biochemical; type: binding; conditions: for Kd: Dissociation Constant (KD) ± Standard Deviation, changes in initial fluorescence
Procedure: For labeling, the proteins were diluted to a concentration of 800 nM in binding buffer (50 mM potassium phosphate, pH 8.0, 800 mM NaCl, and 0.05% Tween 20), mixed with an equal volume of RED-Tris-NTA dye (80 nM), and incubated on ice in the dark for 30 min. […] The labeled proteins and the ligand dilutions were then mixed in a 1:1 ratio and incubated on ice in the dark for 30 min.
as §2, with “In the His6-peptide test, a control His6-peptide was used instead of USP in the binding assay described above, and if no change in initial fluorescence occurred, this confirmed the USP-specific binding of ligands.” left out, “dye.” for “dye. The complete loss of the ligand-induced initial fluorescence change in this assay confirmed that this change was neither because of protein aggregation nor because of protein adsorption to labware.”

USPSa-S244A = assay: MicroScale Thermophoresis (initial fluorescence change) nucleotide binding; design: species or system Staphylococcus aureus; conditions: S244A mutant; for Dissociation Constant (KD) ± Standard Deviation: MST, initial fluorescence
Procedure: as §1, §2, §3

USPSa2-WT = USPSa2-WT (Staphylococcus aureus, UniProt Q5HK61); assay: biochemical; type: binding; conditions: MST, change in thermophoretic mobility, read-out: Dissociation Constant (KD) ± Standard Deviation
USPSp-WT = type: binding, Streptococcus pneumoniae; conditions: MST, change in thermophoretic mobility, read-out: Dissociation Constant (KD) ± Standard Deviation
[3] = tested on: maltose-binding protein–tagged version of the USPSa Y271A mutant; design: method as in PMID 26195599; conditions: cited from earlier work
USPSa-V310A = USPSa-V310A (Staphylococcus aureus, UniProt A0A7U7EVR3, V310A); assay: MicroScale Thermophoresis (initial fluorescence change) nucleotide binding; conditions: V310A mutant, MST, read-out: Dissociation Constant (KD) ± Standard Deviation
Procedure: as §1, §2, §3

USPMtb-WT = target: T11, USPMtb-WT (Mycobacterium tuberculosis, UniProt P9WGL3); assay: biochemical; type: binding
T11 construct: made in house; host or cells: E. coli C41 (DE3), pTB146, no KdpE co-expression

untagged USPSa = assay: fluorescence-based thermal shift (ThermoFluor) assay; type: binding, Staphylococcus aureus; conditions: 7.5-fold molar excess of c-di-AMP; purified untagged USPSa
Procedure: The plates were then sealed with Microseal “B” Seal Seals (Bio-Rad Laboratories) and heated in a CFX96 real-time PCR system (Bio-Rad Laboratories) from 25 °C to 99 °C in increments of 0.5 °C. Fluorescence changes in the plate wells were monitored simultaneously with a charge-coupled device camera, utilizing excitation and emission wavelengths of 497 nm and 520 nm, respectively.

[4] = target: maltose-binding protein–tagged USP; conditions: differential radial capillary action of ligand assay, read-out: previously reported KD; cited from earlier work
[5] = Ka relative to WT USPSa set to 100%

## Nc1ncnc2c1ncn2[C@@H]1O[C@H](COP(=O)(O)O)[C@@H](O)[C@H]1O [AMP]
USPSa-WT [1]
  Kd: 20700 ± 4400 µM
USPSa-K277A; [5]
  relative binding affinity: ~45%
USPSa-K277A
  Kd: 50700 ± 4030 µM
USPSa-R279A
  Kd: 14400 ± 950 µM
USPSa-S246A; [5]
  relative binding affinity: ~40%
USPSa-S246A
  Kd: 7250 ± 210 µM
USPSa-Y248A; [5]
  relative affinity: ~60%
USPSa-Y248A
  Kd: 5400 ± 3810 µM
USPSa-Y281F; [5]
  binding relative to WT USPSa: ~30%
USPSa-Y281F
  Kd: 5150 ± 350 µM
USPSa-N249A
  Kd: 5170 ± 3420 µM
USPSa-K282A
  Kd: 1450 ± 640 µM
USPSa-A242G; A242G mutant
  improvement of binding affinity versus WT USPSa: ~25 fold
  Kd: 140 ± 10 µM
USPSa-Q280A
  Kd: 1820 ± 250 µM
USPSa-H331A
  Kd: 4130 ± 110 µM
USPSa-H331A; His331 to Ala mutant, relative to WT USPSa
  loss of relative binding affinity: ~60%
USPSa-S244D; [5]
  relative binding affinity: ~50%
USPSa-S244D; MST, initial fluorescence, read-out: Dissociation Constant (KD) ± Standard Deviation
  Kd: 4060 ± 1940 µM
USPSa-L344A; [5]
  relative affinity: 40%
USPSa-L344A
  Kd: 4140 ± 900 µM
USPSa-WT [2]; His6-USPSa WT, MST
  Kd: 2650 ± 1160 µM
  binding affinity, fold lower than that of c-di-AMP: > 5000 fold
USPSa-S244A
  binding in MST analysis (in words): did not bind
  Dissociation Constant (KD) ± Standard Deviation: No Binding Observed

## Nc1ncnc2c1ncn2[C@@H]1O[C@@H]2COP(=O)(O)O[C@H]3[C@@H](O)[C@H](n4cnc5c(N)ncnc54)O[C@@H]3COP(=O)(O)O[C@H]2[C@H]1O [c-di-AMP, cyclic-di-adenosine monophosphate]
USPSa-WT [1]
  Kd: 3.13 ± 0.75 µM
USPSa-K277A
  Kd: 10.1 ± 0.24 µM
USPSa-R279A
  Kd: 8.67 ± 0.75 µM
USPSa2-WT
  Kd: 125 ± 15 µM
USPSp-WT
  Kd: 67.5 ± 13 µM
[3]
  c-di-AMP binding in vitro (in words): deficient in c-di-AMP binding
USPSa-S246A
  Kd: 1.3 ± 0.19 µM
USPSa-Y248A
  Kd: 4.22 ± 0.11 µM
USPSa-Y281F
  Kd: 1.79 ± 0.84 µM
USPSa-V310A
  Kd: 1.71 ± 0.42 µM
USPSa-N249A
  binding affinity versus WT USPSa (in words): significant reduction
  Kd: 7.84 ± 0.34 µM
USPSa-K282A
  Kd: 0.6 ± 0.24 µM
USPSa-A242G
  improvement of binding affinity versus WT USPSa: ~50 fold
USPSa-A242G; A242G mutant
  Kd: 0.01 ± 0.01 µM
USPSa-Q280A
  Kd: 0.87 ± 0.06 µM
USPSa-H331A
  Kd: 2.37 ± 1.32 µM
USPSa-S244D
  binding (in words): completely abolished
USPSa-S244D; MST, initial fluorescence
  Dissociation Constant (KD) ± Standard Deviation: No Binding Observed
USPSa-L344A
  Kd: 8.84 ± 1.09 µM
USPMtb-WT
  Kd: 666 ± 168 µM
Untagged USPSa
  increase of melting temperature of USPSa: 10 °C
USPSa-WT [2]; His6-USPSa WT, MST
  Kd: 0.5 µM and 0.53 µM
[4]
  Kd: 2 ± 0.18 µM
USPSa-S244A
  binding in MST analysis (in words): complete loss
  Dissociation Constant (KD) ± Standard Deviation: No Binding Observed

## Nc1ncnc2c1ncn2[C@@H]1O[C@H](COP(=O)(O)OP(=O)(O)OP(=O)(O)O)[C@@H](O)[C@H]1O [ATP, adenosine triphosphate]
USPSa-WT [2]
  binding affinity, fold lower than that of c-di-AMP: > 5000 fold
USPSa-WT [2]; His6-USPSa WT, MST
  Kd: 5150 ± 70 µM
